Where a name gives a salt, the structure may show the parent alone.
Biological target: T1, hBK1 receptor (Homo sapiens, UniProt P46663)
T1 construct: expressed in transfected cells; host or cells: CHO cells (membrane homogenate)
T1 sequence (P46663 1-353): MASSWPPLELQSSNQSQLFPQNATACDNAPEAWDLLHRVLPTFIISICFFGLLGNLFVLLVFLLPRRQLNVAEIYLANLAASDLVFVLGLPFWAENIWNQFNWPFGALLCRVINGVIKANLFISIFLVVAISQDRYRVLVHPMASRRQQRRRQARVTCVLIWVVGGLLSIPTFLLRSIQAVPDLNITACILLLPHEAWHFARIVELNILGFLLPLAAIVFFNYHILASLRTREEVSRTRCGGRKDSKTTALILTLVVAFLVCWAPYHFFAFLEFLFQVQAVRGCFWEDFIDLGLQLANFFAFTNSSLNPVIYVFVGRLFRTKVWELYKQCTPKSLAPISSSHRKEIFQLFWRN
Assay: hBK1 receptor binding
Conditions: membranes of CHO cells expressing the hBK1 receptor; radioligand 0.5 to 1.0 nM kallidin (DesArg10, Leu9), [3,4-prolyl-3,43H(N)]; 60 minutes, room temperature
Protocol: CHO cells expressing the hBK1 receptor are cultivated in Dulbecco's modified medium. The medium from confluent cultures is removed and the cells are washed with PBS buffer, scraped off and isolated by centrifugation. The cells are then homogenized in suspension and the homogenate is centrifuged and resuspended. The protein content is determined and the membrane preparation obtained in this manner is then frozen at −80° C.
After thawing, 200 μl of the homogenate (50 to 100 μg of proteins/assay) are incubated at room temperature with 0.5 to 1.0 nM of kallidin (DesArg10, Leu9), [3,4-prolyl-3,43H(N)] and increasing concentrations of the test substance in a total volume of 250 μl for 60 minutes. The incubation is terminated by rapid filtration through GF/B glass fibre filters which had been pretreated with polyethyleneimine (0.3%). The protein-bound radioactivity is measured in a TopCount NXT. Non-specific binding is defined as radioactivity bound in the presence of 1.0 μM of […]. The concentration/binding curve is analysed using a computer-assisted nonlinear curve fitting. The Ki which corresponds to the test substance is determined using the data obtained in this manner.

Structure (SMILES) | Ki
CN(CCc1ccc(C2=NCCN2)cc1)C(=O)C1CCCN(S(=O)(=O)c2cccc(Cl)c2Cl)C1 (centres unmarked) [C, 1-[(2,3-dichlorobenzenesulphonyl)piperidin-3-yl]-N-({2-[4-(4,5-dihydro-1H-imidazol-2-yl)phenyl]ethyl}methyl)carboxamide] | 957 nM
CN(CCN1CCN(CCc2ccc(C3=NCCN3)cc2)C1=O)S(=O)(=O)c1cccc(Cl)c1Cl [E, 2,3-dichloro-N-[2-(3-{2-[4-(4,5-dihydro-1H-imidazol-2-yl)phenyl]ethyl}-2-oxoimidazolidin-1-yl)ethyl]-N-methylbenzenesulphonamide hydrochloride] | 1520 nM

Now those with a lower Ki, led by results:

Ki | Structure (SMILES)
62 nM | CC(C)N(CCCC(=O)N(C)CCc1ccc(C2=NCCN2)cc1)S(=O)(=O)c1cccc(Cl)c1Cl [A, 4-[(2,3-dichlorobenzenesulphonyl)isopropylamino]-N-{2-[4-(4,5-dihydro-1H-imidazol-2-yl)phenyl]ethyl}-N-methylbutyramide]
26 nM | Cc1cc(S(=O)(=O)N2CCCCC2CCC(=O)N(C)CCc2ccc(C3=NCCN3)cc2)c(C)cc1Cl (centres unmarked) [B, 3-[1-(4-chloro-2,5-dimethylbenzenesulphonyl)piperidin-2-yl]-N-{2-[4-(4,5-dihydro-1H-imidazol-2-yl)phenyl]ethyl}-N-methylpropionamide hydrochloride]
170 nM | Cc1cc(S(=O)(=O)N(C)CCNC(=O)CCc2ccc(C3=NCCN3)cc2)c(C)cc1Cl [D, N-{2-[(4-chloro-2,5-dimethylbenzenesulphonyl)methylamino]ethyl}-3-[4-(4,5-dihydro-1H-imidazol-2-yl)phenyl]propionamide]
